Activity calls are given as the source filed them.
Key:
[1] = molecular target: Disintegrin and metalloproteinase domain-containing protein 17 (Homo sapiens, UniProt P78536); test: exosite inhibitors of ADAM17, dose response, biochemical (AID 743260)
[2] = ADAM10 protease inhibitors, dose response, selectivity assay for ADAM17 exosite inhibitor project, biochemical, FRET peptide substrate, recombinant human ADAM10 (AID 743259);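 also: ADAM10 enzyme cleaving a FRET peptide substrate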
[3] = tested on: H9c2; test: cells; type: functional, cell-based; settings: Rattus norvegicus, H9c2, Myocardium;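 also: confirmatory concentration-response retest of ultra-high-throughput screening hits for modulation of myocardial damage; cell death induced by hydrogen peroxide oxidative stress; compound pretreatment for 60 min then peroxide exposure for 2 h; potency is for protecting the cells against peroxide damage rather than for killing them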
[4] = molecular target: Paired box protein Pax-8 (Homo sapiens, UniProt Q06710); test: inhibitors of PAX8-driven TPO luciferase reporter, dose response, RMG-I cells, cherry-pick (AID 687027); type: functional, cell-based;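 also: luciferase reporter driven by Pax8 target thyroperoxidase promoter measured by SteadyGlo luminescence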
[5] = non-specific cell cytotoxicity, dose response, cytotoxicity control for PAX8 inhibitor project, plate reader, dry powder samples (AID 743021); type: functional, cell-based
[6] = molecular target: T1, RNA-binding protein pos-1 (Caenorhabditis elegans, UniProt G5EF15); test: inhibitors of POS-1/mex-3 RNA binding, dose response, biochemical, fluorescence polarization (AID 1964);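 also: purified POS-1 fused to maltose binding protein made in E. coli; potency of compounds blocking POS-1 binding to fluorescent RNA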
T1 sequence (G5EF15 whole entry): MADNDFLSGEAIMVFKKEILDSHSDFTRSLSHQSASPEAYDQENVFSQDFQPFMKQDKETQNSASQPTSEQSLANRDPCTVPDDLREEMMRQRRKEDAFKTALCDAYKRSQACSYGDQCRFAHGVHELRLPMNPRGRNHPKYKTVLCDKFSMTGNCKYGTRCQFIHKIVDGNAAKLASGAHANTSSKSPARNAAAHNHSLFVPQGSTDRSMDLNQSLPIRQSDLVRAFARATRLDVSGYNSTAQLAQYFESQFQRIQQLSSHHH

[7] = molecular target: T2, Zinc finger protein mex-5 (Caenorhabditis elegans, UniProt Q9XUB2); test: MEX-5/TCR-2 RNA interaction inhibitors, dose response, biochemical, C. elegans, fluorescence polarization (AID 1960)
T2 sequence (Q9XUB2 whole entry): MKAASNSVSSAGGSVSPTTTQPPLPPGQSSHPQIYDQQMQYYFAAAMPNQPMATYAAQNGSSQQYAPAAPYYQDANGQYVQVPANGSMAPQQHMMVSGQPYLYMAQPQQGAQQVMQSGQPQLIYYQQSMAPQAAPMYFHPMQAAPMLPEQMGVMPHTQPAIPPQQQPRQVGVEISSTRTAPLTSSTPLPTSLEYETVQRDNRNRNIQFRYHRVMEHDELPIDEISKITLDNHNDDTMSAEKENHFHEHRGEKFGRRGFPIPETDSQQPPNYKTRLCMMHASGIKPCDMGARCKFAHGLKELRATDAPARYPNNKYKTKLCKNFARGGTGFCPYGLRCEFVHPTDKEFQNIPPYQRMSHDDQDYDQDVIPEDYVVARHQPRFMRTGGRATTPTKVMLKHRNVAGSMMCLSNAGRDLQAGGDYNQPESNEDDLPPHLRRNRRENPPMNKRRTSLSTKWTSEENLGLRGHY

[8] = molecular target: Albumin (Bos taurus, UniProt P02769); test: Counterscreen for inhibitors of T-cell receptor (TCR)-CD3 interaction: Fluorescence-based biochemical high throughput dose response assay to identify inhibitors of T-cell receptor (TCR)-CD3 interaction using a TAMRA-labeled BSA probe.; type: functional
[9] = molecular target: T3, Oxysterols receptor LXR-beta (Homo sapiens, UniProt P55055); type: functional, cell-based;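 also: Cell-based luminescence dose-response assay of agonist activity at LXR, run as a confirmatory counterscreen to a daf-12 agonist screen; HEK293 cells with Gal4-LXR fusion and GAL4-driven luciferase reporter; agonist potency from rising luciferase signal of a Gal4-LXR reporter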
T3 sequence (P55055 whole entry): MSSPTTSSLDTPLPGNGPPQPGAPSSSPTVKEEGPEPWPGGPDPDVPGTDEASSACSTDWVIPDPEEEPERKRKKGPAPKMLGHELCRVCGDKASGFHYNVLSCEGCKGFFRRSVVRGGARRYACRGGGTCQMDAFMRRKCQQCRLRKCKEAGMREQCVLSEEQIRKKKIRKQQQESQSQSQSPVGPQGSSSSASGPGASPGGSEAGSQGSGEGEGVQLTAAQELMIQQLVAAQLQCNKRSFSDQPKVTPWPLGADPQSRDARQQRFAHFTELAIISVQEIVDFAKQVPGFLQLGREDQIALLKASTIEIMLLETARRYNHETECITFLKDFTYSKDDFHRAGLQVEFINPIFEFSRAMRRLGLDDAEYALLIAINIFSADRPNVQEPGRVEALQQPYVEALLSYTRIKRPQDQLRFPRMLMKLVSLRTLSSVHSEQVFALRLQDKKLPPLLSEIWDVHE

[10] = cells
[11] = cytotoxicity in HEK-293T cells, dose response, cytotoxicity control for TCR NF-kB inhibitor project, luminescence, T-cell screen hits (AID 489026); type: functional, cell-based;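 also: cells exposed to compound about 14 hours before the viability readout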
[12] = molecular target: T4, Microphthalmia-associated transcription factor (Homo sapiens, UniProt O75030); test: TRPM1 promoter luciferase signal decrease, dose response, MITF inhibitor project, cell-based, SK-MEL-5, cherry-picked, set 3 (AID 493073); type: functional
T4 sequence (O75030 whole entry): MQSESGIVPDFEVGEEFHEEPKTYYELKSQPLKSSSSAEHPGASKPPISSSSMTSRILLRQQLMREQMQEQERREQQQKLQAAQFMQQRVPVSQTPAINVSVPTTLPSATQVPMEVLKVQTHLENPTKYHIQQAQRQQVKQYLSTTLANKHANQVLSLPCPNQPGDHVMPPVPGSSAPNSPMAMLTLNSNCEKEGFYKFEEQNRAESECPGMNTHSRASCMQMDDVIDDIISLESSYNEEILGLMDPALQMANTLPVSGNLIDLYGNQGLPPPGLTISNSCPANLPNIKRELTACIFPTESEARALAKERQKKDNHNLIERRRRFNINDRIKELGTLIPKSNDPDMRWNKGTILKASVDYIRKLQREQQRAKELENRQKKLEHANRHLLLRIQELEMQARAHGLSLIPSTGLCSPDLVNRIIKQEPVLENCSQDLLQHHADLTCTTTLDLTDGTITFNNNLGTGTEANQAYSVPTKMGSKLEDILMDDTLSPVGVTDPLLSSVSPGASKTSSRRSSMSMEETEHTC

[13] = cells; type: functional, cell-based
[14] = molecular target: T5, Nuclear receptor subfamily 0 group B member 1 (Homo sapiens, UniProt P51843); type: functional, cell-based;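 also: HEK293T cells transfected with SF-1 and DAX-1 plus StAR promoter luciferase reporter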
T5 sequence (P51843 whole entry): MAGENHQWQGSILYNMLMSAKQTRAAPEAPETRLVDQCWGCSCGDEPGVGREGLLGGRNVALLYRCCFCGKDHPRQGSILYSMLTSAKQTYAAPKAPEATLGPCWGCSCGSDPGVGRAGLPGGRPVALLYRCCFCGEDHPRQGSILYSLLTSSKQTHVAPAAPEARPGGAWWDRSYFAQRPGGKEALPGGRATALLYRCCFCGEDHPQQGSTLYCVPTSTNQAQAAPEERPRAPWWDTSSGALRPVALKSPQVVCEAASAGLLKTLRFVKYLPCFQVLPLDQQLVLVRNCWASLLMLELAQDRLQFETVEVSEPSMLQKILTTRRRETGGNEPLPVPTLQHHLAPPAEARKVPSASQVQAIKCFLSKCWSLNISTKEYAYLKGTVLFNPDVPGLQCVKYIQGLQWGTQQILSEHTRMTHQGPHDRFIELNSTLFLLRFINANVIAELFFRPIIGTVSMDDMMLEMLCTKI

[15] = microbe, parasite or virus in culture; type: functional; settings: Mycobacterium tuberculosis
[16] = Luminescence-based cell-based high throughput dose response assay to identify activators of the DAF-12 from the parasite S. stercoralis (ssDAF-12).; type: functional
[17] = Luminescence Cell-Based Dose Response HTS to Identify Inhibitors of 5'UTR Stem-Loop Driven Prion Protein mRNA Translation in H4 Neuroglioblastoma Cells. [Related pubchem assays: 1827 (Project Summary), 1813 (Primary HTS)]; type: functional
[18] = inhibitors of SNCA 5'UTR-driven reporter translation, confirmation, H4 neuroglioma cells, luminescence (AID 1988); type: functional, cell-based
[19] = inhibitors of PGC1a acetylation in cells, dose response, cell-based, cherry-picked samples (AID 720514); type: functional;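 also: potency may reflect raised or lowered acetylation signal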
[20] = P. falciparum 3D7-ScDHODH growth inhibitors, dose response, SYBR Green, dry powder samples (AID 1159570); type: functional, cell-based;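 also: parasite growth measured after 72 hours of compound exposure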
[21] = HepG2 cell cytotoxicity, dose response, cytotoxicity control, plate reader, dry powder samples (AID 1159569); type: functional, cell-based;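 also: inhibitor potency with signal falling toward the positive control level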
[22] = P. falciparum Dd2 growth inhibitors, dose response, SYBR Green, cherry-picked samples (AID 1159567); type: functional, cell-based
[23] = P. falciparum Dd2 growth inhibitors, dose response, SYBR Green, dry powder samples (AID 1159566); type: functional, cell-based;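 also: potency for growth inhibition with lower SYBR green DNA signal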
[24] = P. falciparum ATP4 D1247Y mutant growth inhibitors, dose response, NITD609-resistant line, SYBR Green, dry powder (AID 1159571); type: functional, cell-based;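 also: parasites synchronized at ring stage by sorbitol before testing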
[25] = molecular target: FAD-linked sulfhydryl oxidase ALR (Homo sapiens, UniProt P55789); test: inhibitors of human ALR sulfhydryl oxidase, dose response, biochemical, H2O2 detection, luminescence, cherry-pick (AID 493248)
[26] = molecular target: T6, DNA repair protein RAD52 homolog (Homo sapiens, UniProt P43351); type: functional, biochemical
T6 sequence (P43351 whole entry): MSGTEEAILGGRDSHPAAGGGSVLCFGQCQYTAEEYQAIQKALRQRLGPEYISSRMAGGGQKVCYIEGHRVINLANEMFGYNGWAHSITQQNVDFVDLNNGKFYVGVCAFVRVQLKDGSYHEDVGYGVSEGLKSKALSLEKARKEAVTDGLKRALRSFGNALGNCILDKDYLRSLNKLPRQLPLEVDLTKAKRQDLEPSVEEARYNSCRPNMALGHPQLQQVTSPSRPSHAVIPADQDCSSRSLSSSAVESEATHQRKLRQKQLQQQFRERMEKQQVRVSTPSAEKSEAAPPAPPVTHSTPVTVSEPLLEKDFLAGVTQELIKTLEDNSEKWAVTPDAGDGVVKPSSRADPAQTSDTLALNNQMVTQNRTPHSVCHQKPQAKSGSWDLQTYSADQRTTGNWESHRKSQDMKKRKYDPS

[27] = inhibitors of firefly luciferase expression or activity, dose response, H4 neuroglioma cells, luminescence (AID 1990); type: functional, cell-based

Sequence of Disintegrin and metalloproteinase domain-containing protein 17 (P78536 whole entry, the tested form may be a part): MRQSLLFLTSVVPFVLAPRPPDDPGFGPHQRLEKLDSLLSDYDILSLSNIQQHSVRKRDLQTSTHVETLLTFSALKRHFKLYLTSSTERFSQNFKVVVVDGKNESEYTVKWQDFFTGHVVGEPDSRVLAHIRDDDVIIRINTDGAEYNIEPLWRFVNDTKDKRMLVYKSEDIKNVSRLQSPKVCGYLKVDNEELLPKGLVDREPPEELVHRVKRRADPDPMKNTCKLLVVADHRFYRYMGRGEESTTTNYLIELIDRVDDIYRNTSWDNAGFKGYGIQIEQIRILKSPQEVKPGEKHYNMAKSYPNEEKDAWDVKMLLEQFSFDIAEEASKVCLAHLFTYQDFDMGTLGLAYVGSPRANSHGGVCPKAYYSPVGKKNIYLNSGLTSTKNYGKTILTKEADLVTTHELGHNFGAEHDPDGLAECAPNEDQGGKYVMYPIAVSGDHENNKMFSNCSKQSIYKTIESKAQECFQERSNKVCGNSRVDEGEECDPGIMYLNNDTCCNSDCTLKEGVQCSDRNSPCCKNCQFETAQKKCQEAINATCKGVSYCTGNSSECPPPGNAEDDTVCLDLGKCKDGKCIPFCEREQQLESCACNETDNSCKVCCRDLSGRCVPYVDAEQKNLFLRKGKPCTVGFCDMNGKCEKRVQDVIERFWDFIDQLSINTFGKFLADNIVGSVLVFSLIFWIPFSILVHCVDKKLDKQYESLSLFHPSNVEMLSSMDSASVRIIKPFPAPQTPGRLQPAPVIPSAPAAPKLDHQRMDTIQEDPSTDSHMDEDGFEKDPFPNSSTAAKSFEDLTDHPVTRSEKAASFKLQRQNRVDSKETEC
Sequence of Albumin (P02769 whole entry, the tested form may be a part): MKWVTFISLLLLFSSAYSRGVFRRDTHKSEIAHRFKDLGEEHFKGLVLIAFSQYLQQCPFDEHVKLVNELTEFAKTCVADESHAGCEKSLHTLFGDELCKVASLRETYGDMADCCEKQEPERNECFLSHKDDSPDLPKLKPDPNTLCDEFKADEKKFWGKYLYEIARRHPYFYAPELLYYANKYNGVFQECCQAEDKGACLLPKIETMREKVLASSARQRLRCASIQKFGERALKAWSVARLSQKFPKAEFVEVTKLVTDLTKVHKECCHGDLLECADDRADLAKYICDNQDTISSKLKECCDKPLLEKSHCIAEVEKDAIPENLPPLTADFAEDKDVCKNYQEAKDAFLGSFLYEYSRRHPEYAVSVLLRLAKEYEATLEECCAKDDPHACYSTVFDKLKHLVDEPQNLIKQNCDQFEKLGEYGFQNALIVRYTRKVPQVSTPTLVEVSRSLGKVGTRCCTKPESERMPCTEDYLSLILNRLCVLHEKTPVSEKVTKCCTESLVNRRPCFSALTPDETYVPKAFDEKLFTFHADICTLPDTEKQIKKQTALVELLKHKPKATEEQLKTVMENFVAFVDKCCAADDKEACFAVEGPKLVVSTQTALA
Sequence of Paired box protein Pax-8 (Q06710 whole entry): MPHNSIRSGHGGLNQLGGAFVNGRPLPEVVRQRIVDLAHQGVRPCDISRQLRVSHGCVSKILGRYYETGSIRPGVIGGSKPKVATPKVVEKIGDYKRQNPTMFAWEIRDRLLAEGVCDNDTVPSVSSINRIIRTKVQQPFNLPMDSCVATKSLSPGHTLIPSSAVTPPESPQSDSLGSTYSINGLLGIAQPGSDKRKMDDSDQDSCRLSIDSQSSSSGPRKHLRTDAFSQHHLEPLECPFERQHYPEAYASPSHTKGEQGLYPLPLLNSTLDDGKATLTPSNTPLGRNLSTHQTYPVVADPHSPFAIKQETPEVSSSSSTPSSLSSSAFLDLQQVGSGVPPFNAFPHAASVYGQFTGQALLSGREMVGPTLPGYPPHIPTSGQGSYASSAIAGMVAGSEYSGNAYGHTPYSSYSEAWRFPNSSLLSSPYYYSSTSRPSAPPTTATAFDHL
Sequence of FAD-linked sulfhydryl oxidase ALR (P55789 whole entry): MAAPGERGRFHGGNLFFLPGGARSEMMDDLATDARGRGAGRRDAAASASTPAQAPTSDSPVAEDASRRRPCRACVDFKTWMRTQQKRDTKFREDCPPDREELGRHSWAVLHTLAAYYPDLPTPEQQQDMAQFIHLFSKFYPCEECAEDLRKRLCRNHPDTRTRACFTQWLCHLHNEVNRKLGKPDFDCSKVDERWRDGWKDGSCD

Cc1ccc(NC(=O)COC(=O)/C(=C/c2cccs2)c2cccs2)cc1S(=O)(=O)N(C)C
IC50 [1]: > 69.5 µM (inactive)
IC50 [2]: > 69.5 µM (inactive)

CCC(c1nnnn1Cc1ccccc1)N1CCC(n2c(O)nc3ccccc32)CC1 (stereo unspecified)
IC50 [3]: > 79 µM (inactive)
AC50 [4]: 3.8 µM (active)
AC50 [5]: 41.4 µM (active)

Cc1ccc(O)c(-c2cc(C(=O)Nc3ccc(S(=O)(=O)Nc4nccc(C)n4)cc3)[nH]n2)c1
EC50 [6]: 13.1 µM (inconclusive)
EC50 [7]: 6.59 µM (active)
IC50 [8]: > 94.1 µM (inactive)

Cc1ccc(-c2nnc(-c3cccc4ccccc34)o2)cc1
EC50 [9]: > 67.5 µM (inactive)
EC50 [10]: > 67.5 µM (inactive)

COc1ccc(COC(=O)c2cc([N+](=O)[O-])ccc2N2CCOCC2)cc1F
IC50 [11]: > 80 µM (inactive)
AC50 [12]: 0.023 µM (active)
IC50 [13]: > 67.5 µM (inactive)
IC50 [14]: > 0.278 µM (active)
AC50 [4]: < 0.26 µM (active)

CCc1ccc(-n2nc3cc(C)c(N)cc3n2)cc1
CC50 [15]: > 40 µM (active)
IC50 [16]: > 67.5 µM (inactive)
EC50 [9]: > 67.5 µM (inactive)
EC50 [10]: > 67.5 µM (inactive)

Cc1ccc2c(c1)s/c(=N/C(=O)c1cccs1)n2C
EC50 [17]: 4.15 µM (active)
EC50 [18]: 4.79 µM (active)
EC50 [9]: > 67.6 µM (inactive)
EC50 [10]: > 67.6 µM (inactive)

COC(=O)c1nn(-c2ccccc2)ccc1=O
AC50 [19]: 5.56 µM (active)

O=C(NC(=S)Nc1ccc2c(c1)OCCO2)c1cccc2ccccc12
IC50 [1]: > 69.5 µM (inactive)
IC50 [2]: > 69.5 µM (inactive)

C[C@@H]1CN([C@@H](C)CO)S(=O)(=O)c2ccc(/C=C/c3ccccc3)cc2O[C@H]1CN(C)C(=O)c1ccc2c(c1)OCO2
AC50 [20]: 2.96 µM (active)
AC50 [21]: 87.3 µM (active)
AC50 [22]: 2.43 µM (active)
AC50 [23]: 2.09 µM (active)
AC50 [24]: 1.18 µM (active)

O=C1c2cccc(OCC(=O)N3CCCc4ccccc43)c2CCN1Cc1ccc(Br)cc1
IC50 [1]: > 69.5 µM (inactive)
IC50 [2]: > 69.5 µM (inactive)

C[C@@H]1CN([C@@H](C)CO)C(=O)c2c(c3ccccc3n2C)-c2ccccc2CO[C@H]1CN(C)S(=O)(=O)c1ccsc1
AC50 [19]: 29.2 µM (active)

Cc1cccc(N2C(=O)/C(=C\NNC(=O)c3ccccc3Cl)c3ccccc3C2=O)n1
AC50 [25]: 9.36 µM (active)
IC50 [8]: > 94.1 µM (inactive)

NCCCNC(=S)NCCCN(Cc1ccc(Cl)cc1)c1ccc(Br)cn1
AC50 [26]: 20.2 µM (active)

CC(=O)Nc1sc2c(c1-c1nc3ccccc3s1)CCCN(C(C)C)C2
IC50 [16]: > 67.5 µM (inactive)

CCOc1ccc(N(CC(=O)Nc2ccccc2OCC)S(=O)(=O)c2c(C)noc2C)cc1
EC50 [27]: 2.32 µM (active)
EC50 [17]: 0.495 µM (active)
EC50 [18]: 0.567 µM (active)
IC50 [13]: > 67.5 µM (inactive)
IC50 [14]: > 67.5 µM (inactive)

CCOc1cccc2sc(N(CCN(C)C)C(=O)c3cc4ccccc4cc3OC)nc12
AC50 [26]: 12.5 µM (active)

O=C(NNC(=O)c1cc(Cl)ccc1O)c1cccc(S(=O)(=O)N2CCOCC2)c1
EC50 [6]: 18.7 µM (inconclusive)
EC50 [7]: 11.6 µM (active)
IC50 [8]: > 94.1 µM (inactive)

O=C(/C=C\Nc1cccc(F)c1)c1ccc2c(c1)OCO2
EC50 [17]: 7.42 µM (active)
EC50 [18]: 7.2 µM (active)
IC50 [13]: > 67.5 µM (inactive)
IC50 [14]: > 0.0926 µM (active)

Reference: ChEMBL document CHEMBL1201862, “PubChem BioAssay data set” (2004)
